# Assay results taken from US20060134008A1, “Compositions and methods for pulmonary conditions” (priority 2004, published 2006).
# Legend:
# [1] = in average [70-kg] adult; cited from earlier work
# [2] = test system: guinea pigs immunized against ovalbumin
# guinea pigs [3] = assay: Methacholine-induced bronchoconstriction (PenH), methacholine 20-30 minutes after isoflurane anesthesia and airway instillation; conditions: for block of methacholine and lidocaine induced bronchoconstriction (PenH): instilled with lidocaine, methacholine within 20-30 minutes of terminating anesthesia, FIG. 4; for PenH after methacholine by nebulization: methacholine 20-30 minutes following treatment, 200-300 μL instilled
# Protocol: Guinea pigs were anesthetized with isoflurane and one of the following treatments instilled into the airway using a Penn Century device designed for liquid instillation: a) saline; b) lidocaine; c) IpBr or d) lidocaine and IpBr. The volume of liquid instilled was between 200-300 μL for each treatment group. Between 20 and 30 minutes following treatment all animals received methacholine by nebulization.
# guinea pigs [4] = assay: Methacholine-induced bronchoconstriction (PenH), methacholine approximately 10-15 minutes after isoflurane anesthesia and treatment; conditions: FIG. 5
# Protocol: A second study was conducted to evaluate the ability of IpBr and epinephrine to reduce lidocaine/methacholine induced bronchoconstriction earlier relative to the termination of isoflurane. […] Guinea pigs were anesthetized with isoflurane and treated with: a) saline; b) lidocaine; c) lidocaine plus epinephrine; or d) lidocaine plus IpBr. Approximately 10-15 minutes later each guinea pig was exposed to methacholine by nebulization.
# [5] = given with lidocaine, methacholine approximately 10-15 minutes later
Compound,Maximum one-time dose (volume) [1],block of methacholine and lidocaine induced bronchoconstriction (PenH) (guinea pigs [3]),PenH after methacholine by nebulization (guinea pigs [3]; FIG. 3),effect on PenH (in words) (guinea pigs [4]; [5]),also measured
CCCCN1CCCCC1C(=O)Nc1c(C)cccc1C (stereo not shown) [Bupivacaine],(50 mL in average [70-kg] adult),–,–,–,–
"CC(C)[N+]1(C)[C@@H]2CC[C@H]1CC(OC(=O)C(CO)c1ccccc1)C2.[Br-] (stereo partly shown) [IpBr, ipratropium bromide]",–,blocks methacholine-induced bronchoconstriction out to 30 minutes of treatment,effective in blocking methacholine induced bronchoconstriction,greatly reduce PenH back to baseline levels,"effect of concomitant administration on lidocaine-induced increase in PenH ([2]; co-administered with lidocaine, FIG. 2, PenH similar to saline only): blocked the effect of lidocaine on PenH; reduction of PenH relative to animals receiving only lidocaine (guinea pigs [4]; [5]): approximately 90%"
"CCN(CC)CC(=O)Nc1c(C)cccc1C [Lidocaine, lidocaine]",(30 mL in average [70-kg] adult),no differences in PenH,increase PenH relative to guinea pigs receiving only saline,–,"magnitude of the lidocaine-induced PenH increase ([2]; 1.25 or 2.5 mg instilled, FIG. 1): dose-dependent; effect on the bronchoconstrictive action of methacholine (guinea pigs [3]; 15 and 30 minutes following termination of isoflurane anesthesia): enhanced the bronchoconstrictive action of methacholine; PenH relative to baseline (guinea pigs [4]; methacholine approximately 10-15 minutes after treatment): increase in PenH over baseline"
Cc1cccc(C)c1NC(=O)C1CCCCN1C (stereo not shown) [Mepivacaine],(30 mL in average [70-kg] adult),–,–,–,–
CNC[C@H](O)c1ccc(O)c(O)c1 [epinephrine],–,"but not epinephrine, blocks methacholine-induced bronchoconstriction",–,reduced PenH to levels similar to those observed in saline treated animals,–
FC(F)OC(Cl)C(F)(F)F (stereo not shown) [isoflurane],–,–,–,–,"time for which the bronchoconstrictive effects of methacholine are reduced (guinea pigs [3]; inhaled anesthetic, FIG. 3): 20 to 30 min"
